Read-outs that look alike come from different tables or passages of the source.
Assays:
[1] = target: AOC3 (Homo sapiens (Human), UniProt Q16853); test: MAO-Glo AOC3 assay (recombinant CHO cells overexpressing AOC3); type: biochemical
Source text: The MAO-Glo™ Assay (commercial available from PROMEGA, # V1402) provides a sensitive method for the measurement of monoamine oxidase (MAO) activity (Valley, M. P. et al., 2006, Anal. Biochem. 359: 238-246) from a variety of tissues, biofluids or recombinant expressed or purified enzymes. As substrate a derivate of the beetle luciferin ((4S)-4,5-dihydro-2-(6-hydroxybenzothiazolyl)-4-thiazole-carboxylic acid) is used, which is oxidized at a primary amine moiety. After a spontaneous elimination and a catalyzed esterase reaction, the turnover of the luciferine by the luciferase is recorded as a signal of AOC3 activity.
An aliquot of 3 μL of the compound dilution is added to a 384 well plate (Optiplate, PS, flat bottom, white, PERKIN ELMER, #6007290) with a final DMSO concentration of 6.6%. Recombinant CHO cells, overexpressing the human (1500 cells/well), mouse (1000 cells/well) or rat (500 cells/well) AOC3 enzyme are diluted in reaction buffer and added in a volume of 15 μL to the wells. After incubation for 20 minutes at 37° C., 2 μL of MAO substrate (dissolved in DMSO at 16 mM, adjusted to assay concentration in reaction buffer to a final assay concentration of 20 μM) is added and further incubated for 60 minutes at 37° C. The turnover of the substrate is determined by the addition of 20 μL of the detection-mix which was generated by the addition of reconstitution buffer with esterase (PROMEGA, # V1402) to the luciferine detection reagent (PROMEGA, # V1402). After an incubation period of 20 minutes, the luminescent signal is measured with Envision 2104 Multilabel Reader (PERKIN ELMER).
In the following table the activity expressed as IC50 (nM) of compounds according to the invention is presented wherein the IC50 values are determined in the MAO-Glo™ AOC3 assay as described hereinbefore. The term “Example” refers to the example numbers according to the following experimental section.

[2] = system: hepatocytes; test: Metabolic stability assay in hepatocyte suspension; type: in vitro ADME; conditions: 1 μM test compound
Protocol: The metabolic degradation of the test compound is assayed in a hepatocyte suspension. Hepatocytes (typically cryopreserved) are incubated in an appropriate buffer system (e.g. Dulbecco's modified eagle medium plus 3.5 μg glucagon/500 mL, 2.5 mg insulin/500 mL and 3.75 mg/500 mL hydrocortison) containing 5% species serum. Following a (typically) 30 min preincubation in an incubator (37° C., 10% CO2) 5 μl of test compound solution (80 μM; from 2 mM in DMSO stock solution diluted 1:25 with medium) are added into 395 μl hepatocyte suspension (cell density in the range 0.25-5 Mio cells/mL, typically 1 Mio cells/mL; final concentration of test compound 1 μM, final DMSO concentration 0.05%). The cells are incubated for six hours (incubator, orbital shaker) and samples (25 μl) are taken at 0, 0.5, 1, 2, 4 and 6 hours. Samples are transferred into acetonitrile and pelleted by centrifugation (5 min). The supernatant is transferred to a new 96-deepwell plate, evaporated under nitrogen and resuspended. Decline of parent compound is analyzed by HPLC-MS/MS
CLint is calculated as follows CL_INTRINSIC=Dose/AUC=(C0/CD)/(AUD+clast/k)×1000/60. C0: initial concentration in the incubation [μM], CD: cell density of vital cells [10e6 cells/mL], AUD: area under the data [μM×h], clast: concentration of last data point [μM], k: slope of the regression line for parent decline [h-1].
The calculated in vitro hepatic intrinsic clearance can be scaled up to the intrinsic in vivo hepatic Clearance and used to predict hepatic in vivo blood clearance (CL) by the use of a liver model (well stirred model). CL_INTRINSIC_INVIVO [ml/min/kg]=(CL_INTRINSIC [μL/min/10e6 cells]×hepatocellularity [10e6 cells/g liver]×liver factor [g/kg bodyweight])/1000 CL [ml/min/kg]=CL_INTRINSIC_INVIVO [ml/min/kg]×hepatic blood flow [ml/min/kg]/(CL_INTRINSIC_INVIVO [ml/min/kg]+hepatic blood flow [ml/min/kg])

[3] = Table 2, comparative compounds of EP 2 695 881, read-out: IC50
[4] = Table 3, comparative compounds of EP 2 695 881

Chain of AOC3 (Q16853 whole entry): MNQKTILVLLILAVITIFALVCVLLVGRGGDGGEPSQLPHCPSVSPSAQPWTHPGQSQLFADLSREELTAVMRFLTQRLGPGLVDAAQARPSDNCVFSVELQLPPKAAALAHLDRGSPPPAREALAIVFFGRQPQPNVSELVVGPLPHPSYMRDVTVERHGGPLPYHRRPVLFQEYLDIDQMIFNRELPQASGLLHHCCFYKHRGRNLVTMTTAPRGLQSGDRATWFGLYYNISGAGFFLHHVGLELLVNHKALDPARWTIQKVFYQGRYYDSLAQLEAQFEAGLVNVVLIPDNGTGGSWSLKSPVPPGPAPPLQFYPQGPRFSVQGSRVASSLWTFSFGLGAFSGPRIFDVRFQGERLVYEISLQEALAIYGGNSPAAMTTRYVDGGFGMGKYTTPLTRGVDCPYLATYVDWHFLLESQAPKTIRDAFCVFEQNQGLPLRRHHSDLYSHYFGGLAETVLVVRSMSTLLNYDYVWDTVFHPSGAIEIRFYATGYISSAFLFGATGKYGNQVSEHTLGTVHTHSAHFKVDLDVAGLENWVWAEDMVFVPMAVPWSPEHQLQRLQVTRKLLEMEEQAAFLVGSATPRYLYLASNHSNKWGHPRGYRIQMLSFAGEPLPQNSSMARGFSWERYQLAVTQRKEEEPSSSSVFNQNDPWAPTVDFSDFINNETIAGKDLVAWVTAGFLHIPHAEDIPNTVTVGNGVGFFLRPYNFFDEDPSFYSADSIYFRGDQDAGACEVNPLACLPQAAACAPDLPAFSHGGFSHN

IC50 ([1]; Table 1, read-out: AOC3 IC50)	QH ([2]; Table 4)	Compound	further results
		COc1ccc(N2CCN(c3cccc(COC(=O)NC(=N)N)c3F)CC2)cc1 [57 (227), reference compound]	IC50 [1, 3]: 3.9 nM; QH [2, 4]: 20%
		COc1ncc(N2CCN(c3cccc(COC(=O)NC(=N)N)c3F)CC2)cn1 [126 (235), reference compound]	IC50 [1, 3]: 3.9 nM; QH [2, 4]: 11%
3 nM	16%	N=C(N)NC(=O)OCc1ccnc(N2CCC(c3ccncc3)CC2)c1F [Example 1.010]	
3 nM	<4%	N=C(N)NC(=O)OCc1ccnc(N2CCN(c3ccncc3)CC2)c1F [Example 1.011]	
10 nM	6%	CC(=O)N1CCC(C2CN(c3cccc(COC(=O)NC(=N)N)n3)C2)CC1 [Example 1.016]	
3 nM	6%	N=C(N)NC(=O)OCc1ccnc(N2CCN(c3cncnc3)CC2)c1F [Example 1.017]	
8 nM	14%	N=C(N)NC(=O)OCc1ccnc(N2CCC(C3CCOCC3)CC2)c1F [Example 1.023]	
2 nM	9%	N#Cc1ccc(N2CCN(c3nccc(COC(=O)NC(=N)N)n3)CC2)cc1 [Example 1.027]	
9 nM	23%	Cc1cccc(N2CCN(c3nccc(COC(=O)NC(=N)N)c3F)CC2)c1 [Example 1.031]	
6 nM	4%	N=C(N)NC(=O)OCc1ccnc(N2CCN(c3ccccc3)C(=O)C2)c1F [Example 1.033]	
7 nM	16%	COc1ncc(N2CCN(c3cccc(COC(=O)NC(=N)N)n3)CC2)cn1 [Example 1.036]	
9 nM	20%	N=C(N)NC(=O)OCc1ccnc(N2CC=C(c3ccc(F)cc3)CC2)c1F [Example 1.037]	
2 nM	<4%	Cc1cc(N2CCN(c3nccc(COC(=O)NC(=N)N)c3F)CC2)ccn1 [Example 1.039]	
7 nM	7%	COc1ncc(N2CCN(c3nccc(COC(=O)NC(=N)N)n3)CC2)cn1 [Example 1.040]	
9 nM	12%	N=C(N)NC(=O)OCc1ccnc(N2CCC(c3ccc(F)cc3)CC2)c1F [Example 1.041]	
9 nM	56%	N=C(N)NC(=O)OCc1ccnc(N2CCN(c3cccc(F)c3)CC2)c1F [Example 1.044]	
8 nM	<4%	CC(=O)N1CCC(C2CN(c3nccc(COC(=O)NC(=N)N)c3F)C2)CC1 [Example 1.047]	
2 nM	10%	N#CC1(c2ccccc2)CCN(c2nccc(COC(=O)NC(=N)N)c2F)CC1 [Example 1.050]	
2 nM	20%	N#Cc1cccc(C2CCN(c3nccc(COC(=O)NC(=N)N)c3F)CC2)c1 [Example 1.051]	
1 nM	14%	N#Cc1cccc(N2CCN(c3nccc(COC(=O)NC(=N)N)c3F)CC2)c1 [Example 1.054]	
2 nM	16%	N#Cc1ccc(N2CCN(c3nccc(COC(=O)NC(=N)N)c3F)CC2)cc1 [Example 1.055]	
4 nM	12%	N#Cc1ccc(N2CCN(c3nccc(COC(=O)NC(=N)N)c3F)CC2)nc1 [Example 1.056]	
4 nM	18%	COc1cccc(C2=CCN(c3nccc(COC(=O)NC(=N)N)c3F)CC2)c1 [Example 1.058]	

IC50 ([1]; Table 1, read-out: AOC3 IC50)	QH ([2]; Table 4)	Compound	further results
8 nM	13%	Cc1cc(C)cc(N2CCN(c3nccc(COC(=O)NC(=N)N)c3F)CC2)c1 [Example 1.061]	
6 nM	14%	COc1cnc(C2=CCN(c3nccc(COC(=O)NC(=N)N)c3F)CC2)nc1 [Example 1.064]	
5 nM	40%	COc1ccc(C2CCN(c3nccc(COC(=O)NC(=N)N)c3F)CC2)cc1 [Example 1.065]	
5 nM	23%	COc1ccc(N2CCN(c3nccc(COC(=O)NC(=N)N)c3F)CC2)cc1 [Example 1.067]	IC50 ([1]; Table 2, compounds of the present invention, read-out: IC50): 4.6 nM; QH ([2]; Table 3, compounds of the present invention): 10%
7 nM	23%	COc1cccc(N2CCN(c3nccc(COC(=O)NC(=N)N)c3F)CC2)c1 [Example 1.068]	
7 nM	24%	N=C(N)NC(=O)OCc1ccnc(N2CCC(c3ccc(Cl)cc3)CC2)c1F [Example 1.074]	
7 nM	30%	N=C(N)NC(=O)OCc1ccnc(N2CCN(c3ccc(Cl)cc3)CC2)c1F [Example 1.077]	
9 nM	14%	N=C(N)NC(=O)OCc1ccnc(N2CCN(c3ccc(Cl)cn3)CC2)c1F [Example 1.078]	
4 nM	11%	N#Cc1ccc(N2CCN(c3nccc(COC(=O)NC(=N)N)c3F)CC2)c(F)c1 [Example 1.083]	
4 nM	85%	CC(=O)c1ccc(N2CCN(c3nccc(COC(=O)NC(=N)N)c3F)CC2)nc1 [Example 1.085]	
7 nM	11%	N=C(N)NC(=O)OCc1ccnc(N2CCN(c3ccc(C(N)=O)cn3)CC2)c1F [Example 1.086]	
4 nM	8%	N=C(N)NC(=O)OCc1ccnc(N2CCC(N3Cc4ccccc4C3=O)CC2)c1F [Example 1.089]	
7 nM	7%	CNC(=O)c1ccc(N2CCN(c3nccc(COC(=O)NC(=N)N)c3F)CC2)nc1 [Example 1.091]	
9 nM	92%	COC(=O)c1ccc(N2CCN(c3nccc(COC(=O)NC(=N)N)c3F)CC2)nc1 [Example 1.092]	
3 nM	15%	COC(=O)N1CCC(C2CCN(c3nccc(COC(=O)NC(=N)N)c3F)CC2)CC1 [Example 1.095]	
5 nM	9%	N=C(N)NC(=O)OCc1ccnc(N2CCN(c3ccc(C(F)(F)F)nn3)CC2)c1F [Example 1.099]	
5 nM	9%	CN(C)C(=O)c1ccc(N2CCN(c3nccc(COC(=O)NC(=N)N)c3F)CC2)cc1 [Example 1.100]	
7 nM	<4%	CN(C)C(=O)c1ccc(N2CCN(c3nccc(COC(=O)NC(=N)N)c3F)CC2)nc1 [Example 1.101]	
8 nM	<4%	CS(=O)(=O)c1ccc(N2CCN(c3nccc(COC(=O)NC(=N)N)c3F)CC2)nc1 [Example 1.103]	
9 nM	5%	N=C(N)NC(=O)OCc1ccnc(N2CCC(C3CCN(S(N)(=O)=O)CC3)CC2)c1F [Example 1.104]	
6 nM	8%	CS(=O)(=O)c1ccc(N2CCN(c3nccc(COC(=O)NC(=N)N)c3F)CC2)c(F)c1 [Example 1.106]	
		N=C(N)NC(=O)OCc1cccc(N2CCN(c3ccc(C(N)=O)cc3)CC2)c1F [reference compound]	IC50 [1, 3]: 2.5 nM; QH [2, 4]: 47%

From patent US10730850B2, “Pyridinylmethyl carbamimidoylcarbamate derivatives and their use as AOC3 inhibitors” (Boehringer Ingelheim International GmbH, priority 2016, dated 2020)
